How the values were obtained:
MC3T3-E1 cells = assay: Quantitative spectroscopic ALP (alkaline phosphatase) assay in MC3T3-E1 cells; assay type: cell-based; conditions: MC3T3-E1 day 4 of differentiation, with or without 200 ng/mL rhBMP-2 and 50 μM sodium alginate; compared with CSA-90 (FIG. 4)
Procedure: MC3T3-E1 cells at day 4 of differentiation were treated with or without 200 ng/mL rhBMP-2 (recombinant human BMP-2), 0-50 μM CSA-90, and with or without 50 μM sodium alginate. Quantitative spectroscopic ALP (alkaline phosphatase) assays were performed in on multiple wells and normalized to viable cell number. Experimental assays were carried out twice independently. Data for this analysis is provided in FIG. 4 (from left to right 0, 0.5, 1, 5, 10, 25, and 50 μM CSA-90 were tested with or without BMP-2 and Algin).

primary human MSC cells = assay: BMP regulation: gene expression array (SABiosciences PAHS-026) in primary human MSC cells; assay type: cell-based; conditions: hMSC, 8 hours
Procedure: SABisosciences custom array plates (Cat#PAHS-026) were used to measure BMP expression. These array plates are validated for efficiency when used at recommended conditions and reagents. On day 1, primary human MSC cells were plated at 200,000 cell/well using 6-well plates with 10% FBS, Penicillin and Streptomycin 10 mL per Liter, in recommended media. Only early passages of cells were used.
On day 2, cells were treated with compounds dissolved in DMSO diluted 1:1000 or more to avoid solvent effects. A non-treated negative control group was evaluated (FIG. 1, “Control Group”) along with a positive control group containing PS1 at 0.1 μM (FIG. 1, “Group 1”). Final testing concentration for CSA-90 was 5.0 μM (FIG. 1, “Group 2”), 2.5 μM (FIG. 1, “Group 3”), and 1.2 μM (FIG. 1, “Group 4”). Treatment lasted 8 hours, followed by RNA isolation using a QIAGEN Miniprep Kit. RNA was measured at 260/280 nm using NanoDrop2000 and normalized to 250 ng. cDNA preparation was done using QIAGEN First Strand kit.

quadriceps of mice = assay: Ectopic bone formation in quadriceps of mice (muscle pouch model), XR and microCT; assay type: in vivo
Procedure: 10 μg rhBMP-2 was implanted into the quadriceps of mice with 0, 25 μg, or 250 μg CSA-90. A control group received 250 μg CSA-90 alone (without rhBMP-2). Bone was allowed to form ectopically over 3 weeks. Specimens were then harvested for XR (FIG. 5) and microCT (FIG. 7).
MicroCT scans were performed on all samples using a Skyscan 1174 microCT scanner. Scanning data confirmed increases in bone volume (BV) with the addition of CSA-90 (See FIG. 6).

[1] = v. untreated control, concentration not given

For CCCCCCCCNCCC[C@@H](C)[C@H]1CC[C@H]2[C@@H]3[C@H](OCCCN)C[C@@H]4C[C@H](OCCCN)CC[C@]4(C)[C@H]3C[C@H](OCCCN)[C@]12C [CSA-13], the “ALP (alkaline phosphatase) activity normalized to viable cell number” value (MC3T3-E1 cells) was “Comparable results”.

For CCCCCN(CCCCC)CCC[C@@H](C)[C@H]1CC[C@H]2[C@@H]3[C@H](OCCCN)C[C@@H]4C[C@H](OCCCN)CC[C@]4(C)[C@H]3C[C@H](OCCCN)[C@]12C [CSA-90], the “up-regulation of BMP-2 mRNA expression” value (primary human MSC cells; 5 μM concentration) was ~6 fold, the “Fold Up-Regulation ACTB (Actin, beta)” value (primary human MSC cells; [1]) was −4.1173 fold and the “Fold Up-Regulation AHSG (Alpha-2-HS-glycoprotein)” value (primary human MSC cells; [1]) was 1.4077 fold. The “Fold Up-Regulation ALPL (Alkaline phosphatase, liver/bone/kidney)” value (primary human MSC cells; [1]) was −5.8397 fold, the “Fold Up-Regulation AMBN (Ameloblastin)” value (primary human MSC cells; [1]) was −1.0298 fold and the “Fold Up-Regulation AMELY (Amelogenin, Y-linked)” value (primary human MSC cells; [1]) was −1.008 fold. For the same compound, the “Fold Up-Regulation ANXA5 (Annexin A5)” value (primary human MSC cells; [1]) was −1.0287 fold, the “Fold Up-Regulation BGLAP (Bone gamma-carboxyglutamate (gla) protein)” value (primary human MSC cells; [1]) was −1.1336 fold and the “Fold Up-Regulation BGN (Biglycan)” value (primary human MSC cells; [1]) was −2.2679 fold. For the same compound, the “Fold Up-Regulation BMP-1 (Bone morphogenetic protein 1)” value (primary human MSC cells; [1]) was −1.4719 fold, the “Fold Up-Regulation BMP-2 (Bone morphogenetic protein 2)” value (primary human MSC cells; [1]) was 6.7295 fold and the “Fold Up-Regulation BMP-3 (Bone morphogenetic protein 3)” value (primary human MSC cells; [1]) was 1.3888 fold. The “Fold Up-Regulation BMP-4 (Bone morphogenetic protein 4)” value (primary human MSC cells; [1]) was −3.7558 fold, the “Fold Up-Regulation BMP-5 (Bone morphogenetic protein 5)” value (primary human MSC cells; [1]) was 2.1036 fold and the “Fold Up-Regulation BMP-6 (Bone morphogenetic protein 6)” value (primary human MSC cells; [1]) was 14.8826 fold. For the same compound, the “Fold Up-Regulation CALCR (CALCITONIN RECEPTOR)” value (primary human MSC cells; [1]) was 2.1036 fold, the “Fold Up-Regulation CD36 (CD36 molecule, thrombospondin receptor)” value (primary human MSC cells; [1]) was −2.3276 fold and the “Fold Up-Regulation CDH11 (Cadherin 11, type 2, OB-cadherin)” value (primary human MSC cells; [1]) was −2.6119 fold. The “Fold Up-Regulation COL1A1 (Collagen, type I, alpha 1)” value (primary human MSC cells; [1]) was −1.9589 fold, the “Fold Up-Regulation COL1A2 (Collagen, type I, alpha 2)” value (primary human MSC cells; [1]) was −1.525 fold and the “Fold Up-Regulation COL2A1 (Collagen, type II, alpha 1)” value (primary human MSC cells; [1]) was 1.0817 fold. For the same compound, the “Fold Up-Regulation COL3A1 (Collagen, type III, alpha 1)” value (primary human MSC cells; [1]) was 1.1521 fold, the “Fold Up-Regulation COL4A3 (Collagen, type IV, alpha 3)” value (primary human MSC cells; [1]) was −9.7105 fold and the “Fold Up-Regulation COL5A1 (Collagen, type V, alpha 1)” value (primary human MSC cells; [1]) was −1.603 fold. The “Fold Up-Regulation COL10A1 (Collagen, type X, alpha 1)” value (primary human MSC cells; [1]) was 1.0439 fold, the “Fold Up-Regulation COL11A1 (Collagen, type XI, alpha 1)” value (primary human MSC cells; [1]) was −2.8055 fold and the “Fold Up-Regulation COL12A1 (Collagen, type XII, alpha 1)” value (primary human MSC cells; [1]) was −1.366 fold. The “Fold Up-Regulation COL14A1 (Collagen, type XIV, alpha 1)” value (primary human MSC cells; [1]) was 1.0661 fold, the “Fold Up-Regulation COL15A1 (Collagen, type XV, alpha 1)” value (primary human MSC cells; [1]) was 1.1217 fold and the “Fold Up-Regulation COMP (Cartilage oligomeric matrix protein)” value (primary human MSC cells; [1]) was 1.5909 fold. For the same compound, the “Fold Up-Regulation CSF2 (Colony stimulating factor 2)” value (primary human MSC cells; [1]) was 3.2231 fold, the “Fold Up-Regulation CSF3 (Colony stimulating factor 3)” value (primary human MSC cells; [1]) was 1.3504 fold and the “Fold Up-Regulation CTSK (Cathepsin K)” value (primary human MSC cells; [1]) was 1.0843 fold. The “Fold Up-Regulation DMP1 (Dentin matrix acidic phosphoprotein 1)” value (primary human MSC cells; [1]) was 2.1036 fold, the “Fold Up-Regulation DSPP (Dentin sialophosphoprotein)” value (primary human MSC cells; [1]) was 2.1036 fold and the “Fold Up-Regulation EGF (Epidermal growth factor)” value (primary human MSC cells; [1]) was −1.3949 fold. The “Fold Up-Regulation EGFR (Epidermal growth factor receptor)” value (primary human MSC cells; [1]) was 1.0894 fold, the “Fold Up-Regulation ENAM (Enamelin)” value (primary human MSC cells; [1]) was 2.1036 fold and the “Fold Up-Regulation FGF1 (Fibroblast growth factor 1)” value (primary human MSC cells; [1]) was −1.7551 fold. For the same compound, the “Fold Up-Regulation FGF2 (Fibroblast growth factor 2)” value (primary human MSC cells; [1]) was −1.0498 fold, the “Fold Up-Regulation FGF3 (Fibroblast growth factor 3)” value (primary human MSC cells; [1]) was −1.5325 fold and the “Fold Up-Regulation FGFR1 (Fibroblast growth factor receptor 1)” value (primary human MSC cells; [1]) was −1.5568 fold. The “Fold Up-Regulation FGFR2 (Fibroblast growth factor receptor 2)” value (primary human MSC cells; [1]) was −3.1961 fold, the “Fold Up-Regulation FLT1 (Fms-related tyrosine kinase 1)” value (primary human MSC cells; [1]) was −2.1823 fold and the “Fold Up-Regulation FN1 (Fibronectin 1)” value (primary human MSC cells; [1]) was −1.4863 fold. For the same compound, the “Fold Up-Regulation GAPDH (Glyceraldehyde-3-phosphate dehydrogenase)” value (primary human MSC cells; [1]) was −1.0501 fold, the “Fold Up-Regulation GDF10 (Growth differentiation factor 10)” value (primary human MSC cells; [1]) was 2.1036 fold and the “Fold Up-Regulation ICAM1 (Intercellular adhesion molecule 1)” value (primary human MSC cells; [1]) was 1.3786 fold. For the same compound, the “Fold Up-Regulation IGF1 (Insulin-like growth factor 1)” value (primary human MSC cells; [1]) was 15.8816 fold, the “Fold Up-Regulation IGF1R (Insulin-like growth factor 1 receptor)” value (primary human MSC cells; [1]) was 1.6854 fold and the “Fold Up-Regulation IGF2 (Insulin-like growth factor 2)” value (primary human MSC cells; [1]) was −2.6412 fold. The “Fold Up-Regulation ITGA1 (Integrin, alpha 1)” value (primary human MSC cells; [1]) was 1.2807 fold, the “Fold Up-Regulation ITGA2 (Integrin, alpha 2)” value (primary human MSC cells; [1]) was 1.6174 fold and the “Fold Up-Regulation ITGA3 (Integrin, alpha 3)” value (primary human MSC cells; [1]) was −2.1172 fold. For the same compound, the “Fold Up-Regulation ITGAM (Integrin, alpha M)” value (primary human MSC cells; [1]) was 2.5974 fold, the “Fold Up-Regulation ITGB1 (Integrin, beta 1)” value (primary human MSC cells; [1]) was −1.3007 fold and the “Fold Up-Regulation MMP2 (Matrix metallopeptidase 2)” value (primary human MSC cells; [1]) was −1.6002 fold. For the same compound, the “Fold Up-Regulation MMP8 (Matrix metallopeptidase 8)” value (primary human MSC cells; [1]) was −1.0189 fold, the “Fold Up-Regulation MMP9 (Matrix metallopeptidase 9)” value (primary human MSC cells; [1]) was 2.0169 fold and the “Fold Up-Regulation MMP10 (Matrix metallopeptidase 10)” value (primary human MSC cells; [1]) was 2.1233 fold. For the same compound, the “Fold Up-Regulation MSX1 (Msh homeobox 1)” value (primary human MSC cells; [1]) was −1.1393 fold, the “Fold Up-Regulation NFKB1 (Nuclear factor of kappa light polypeptide gene enhancer in B-cells 1)” value (primary human MSC cells; [1]) was 1.0365 fold and the “Fold Up-Regulation PDGFA (Platelet-derived growth factor alpha polypeptide)” value (primary human MSC cells; [1]) was −1.1381 fold. For the same compound, the “Fold Up-Regulation PHEX (Phosphate regulating endopeptidase homolog, X-linked)” value (primary human MSC cells; [1]) was −2.0881 fold, the “Fold Up-Regulation RUNX2 (Runt-related transcription factor 2)” value (primary human MSC cells; [1]) was −1.1998 fold and the “Fold Up-Regulation SCARB1 (Scavenger receptor class B, member 1)” value (primary human MSC cells; [1]) was −2.7137 fold. The “Fold Up-Regulation SERPIN H1 (Serpin peptidase inhibitor, clade H, member 1)” value (primary human MSC cells; [1]) was −2.6434 fold, the “Fold Up-Regulation SMAD1 (SMAD family member 1)” value (primary human MSC cells; [1]) was −1.2436 fold and the “Fold Up-Regulation SMAD2 (SMAD family member 2)” value (primary human MSC cells; [1]) was −1.2016 fold. The “Fold Up-Regulation SMAD3 (SMAD family member 3)” value (primary human MSC cells; [1]) was −2.8152 fold, the “Fold Up-Regulation SMAD4 (SMAD family member 4)” value (primary human MSC cells; [1]) was −1.0529 fold and the “Fold Up-Regulation STATH (Statherin)” value (primary human MSC cells; [1]) was 2.5891 fold. The “Fold Up-Regulation TFIP11 (Tuftelin interacting protein 11)” value (primary human MSC cells; [1]) was −1.6592 fold, the “Fold Up-Regulation TGFB1 (Transforming growth factor, beta 1)” value (primary human MSC cells; [1]) was −1.3031 fold and the “Fold Up-Regulation TGFB2 (Transforming growth factor, beta 2)” value (primary human MSC cells; [1]) was 1.619 fold. For the same compound, the “Fold Up-Regulation TGFB3 (Transforming growth factor, beta 3)” value (primary human MSC cells; [1]) was 3.2853 fold, the “Fold Up-Regulation TGFBR1 (Transforming growth factor, beta receptor 1)” value (primary human MSC cells; [1]) was 1.5219 fold and the “Fold Up-Regulation TGFBR2 (Transforming growth factor, beta receptor II)” value (primary human MSC cells; [1]) was −1.7799 fold. The “Fold Up-Regulation TNF (Tumor necrosis factor)” value (primary human MSC cells; [1]) was 2.7072 fold, the “Fold Up-Regulation TUFT1 (Tuftelin 1)” value (primary human MSC cells; [1]) was −4.5431 fold and the “Fold Up-Regulation TWIST1 (Twist homolog 1)” value (primary human MSC cells; [1]) was −1.6813 fold. The “Fold Up-Regulation VCAM1 (Vascular cell adhesion molecule 1)” value (primary human MSC cells; [1]) was −1.1098 fold, the “Fold Up-Regulation VDR (Vitamin D (1,25-dihydroxyvitamin D3) receptor)” value (primary human MSC cells; [1]) was −6.6007 fold and the “Fold Up-Regulation VEGFA (Vascular endothelial growth factor A)” value (primary human MSC cells; [1]) was 1.3548 fold. For the same compound, the “Fold Up-Regulation VEGFB (Vascular endothelial growth factor B)” value (primary human MSC cells; [1]) was 1.2749 fold, the “increase in bone volume (BV) vs rhBMP-2 alone” value (quadriceps of mice; 25 μg with 10 μg rhBMP-2, mice quadriceps, 3 weeks, microCT, parametric P=0.02, nonparametric P<0.01) was “statistically significant” and the “bone formation, CSA alone” value (quadriceps of mice; 250 μg alone without rhBMP-2, muscle pouch model, mice, 3 weeks, microCT (FIG. 7)) was “appears to also result in bone formation”. For the same compound, the “increase in bone volume (BV) vs rhBMP-2 alone” value (quadriceps of mice; 250 μg with 10 μg rhBMP-2, mice quadriceps, 3 weeks, microCT, parametric P<0.01, nonparametric P<0.01) was “statistically significant” and the “increase of ectopic bone volume induced by rhBMP-2 treatment” value (quadriceps of mice; mice quadriceps, 10 μg rhBMP-2 plus CSA-90, 3 weeks, microCT, vs rhBMP-2 alone) was “about 3.2 fold”.

— patent publication US9694019B2, “Compositions and methods for treating bone diseases and broken bones” (BRIGHAM YOUNG UNIVERSITY, priority 2011, dated 2017)
